From patent publication US9328117B2, “Bromodomain inhibitors and uses thereof” (Constellation Pharmaceuticals, Inc., priority 2011, dated 2016)

Legend:
BRD4(BD1) = target: T1, BRD4(BD1) (Homo sapiens, UniProt O60885); assay: BRD4 AlphaLisa binding assay; details: BRD4(BD1) 30 nM, biotinylated H4-tetraacetyl peptide 200 nM
T1 construct: His; made in house
Protocol: A. IC50 Measurements for Inhibitors Using BRD4 AlphaLisa Binding Assay
His/Flag epitope tagged BRD4 BD142-168 was cloned, expressed and purified to homogeneity. BRD4 binding and inhibition was assessed by monitoring the engagement of biotinylated H4-tetraacetyl peptide (Millipore #12-379) with the target using the AlphaLisa technology (Perkin-Elmer). Specifically, in a 384 well ProxiPlate BRD4(BD1) (30 nM final) was combined with peptide (200 nM final) in 40 mM HEPES (pH 7.0), 40 mM NaCl, 1 mM DTT, 0.01% (w/v) BSA, and 0.008% (w/v) Brij-35 either in the presence of DMSO (final 1.2% DMSO) or compound dilution series in DMSO. After 20 minute incubation at room temperature Alpha streptavidin donor beads and AlphaLisa anti-Flag acceptor beads were added to a final concentration of 10 ug/mL each. After three hours equilibration plates were read on an Envision instrument and IC50s calculated using a four parameter non-linear curve fit.

[1] = test system: IL-6 secretion in LPS-treated THP-1 cells; assay: Cell-based IL-6 quantification assay (ELISA, Mesoscale); details: Homo sapiens, LPS 4 μg/mL, 16 h, normalised to CellTiter-Glo
Protocol: C. Cell-Based IL-6 Quantification Assay (ELISA, Mesoscale Assay):
100,000 THP-1 cells were seeded in RPMI1640-10% FBS in 96-well plates. LPS (E. Coli Invitrogen) in RPMI-10% FBS at a final concentration of 4 μg/mL was added to the wells and the cells are then incubated in the presence of various concentrations of compounds for 16 h. Plates are spun ([…], 5 min), an aliquot of 25 uL supernatant is transferred in to an ELISA plate (Mesoscale technology, MSD) and the detection of IL-6 is performed using manufacturer's instructions. The amount of cells in each well is assessed using CellTiter-Glo® (Promega). The ratio of ELISA value/CellTiter-Glo value is used to calculate the percent of inhibition of IL-6 secretion.

[2] = test system: MYC mRNA in MV4:11 (AML) cells; assay: cMyc RNA quantification assay (QuantiGene), MV4:11; type: cell-based; details: Homo sapiens; MV4-11 cells, 4 h
Protocol: (§1) B. cMyc RNA quantification assay (QuantiGene® Assay)
(§2) MV4:11 (AML) or Raji (Burkitt lymphoma) cells were seeded in a 96-well plate and incubated in the presence of various concentrations of compounds for 4 h. Relative mRNA levels were quantitated by using QuantiGene 2.0 assay (Affymetrix) according to the manufacturer's recommendation. Signals were detected by using an Envision plate reader (Perkin-Elmer). Biological duplicates were averaged and normalized to vehicle (DMSO) control to calculate percent MYC mRNA levels.

[3] = test system: MYC mRNA in Raji (Burkitt lymphoma) cells; assay: cMyc RNA quantification assay (QuantiGene), Raji; type: cell-based; details: Homo sapiens, 4 h
Protocol: as §1, §2

SMILES	IC50 (BRD4(BD1)) [nM]	IC50 [1] [nM]	IC50 [2] [nM]	IC50 [3] [nM]
Cc1nnc2c(N)cc(N(C)[C@@H](C)c3ccccc3)nn12 [Compound 6, (S)-N^6,3-dimethyl-N^6-(1-phenylethyl)-[1,2,4]triazolo[4,3-b]pyridazine-6,8-diamine]	< 500	< 500	–	–
C[C@@H](c1ccccc1)N(C)c1ccc2nnc(C#N)n2n1 [Compound 9, (S)-6-(methyl(1-phenylethyl)amino)-[1,2,4]triazolo[4,3-b]pyridazine-3-carbonitrile]	> 1000	> 1000	> 1000	–
CCNC(=O)Nc1cc(N(C)[C@@H](C)c2ccccc2)nn2c(C)nnc12 [Compound 5, (S)-1-ethyl-3-(3-methyl-6-(methyl(1-phenylethyl)amino)-[1,2,4]triazolo[4,3-b]pyridazin-8-yl)urea]	< 500	< 500	–	< 500
Cc1nnc2ccc(N3CCCC3c3ccccc3)nn12 (stereo not shown) [Compound 10, 3-methyl-6-(2-phenylpyrrolidin-1-yl)-[1,2,4]-triazolo[4,3-b]pyridazine]	> 1000	–	–	–
Cc1nnc2ccc(N(C)C(C)c3ccccc3)nn12 (stereo not shown) [Compound 2, N,3-dimethyl-N-(1-phenylethyl)-[1,2,4]triazolo[4,3-b]pyridazin-6-amine]	500 to 1000	> 1000	–	–
CCNC(=O)Nc1cc(N(C)[C@@H](C)c2ccc(Cl)cc2)nn2c(C)nnc12 [Compound 13]	< 500	< 500	< 500	–
CCOC(=O)Nc1cc(N(C)[C@@H](C)c2ccccc2)nn2c(C)nnc12 [Compound 11]	< 500	< 500	–	< 500
Cc1nnc2c(C(N)=O)cc(N(C)[C@@H](C)c3ccccc3)nn12 [Compound 7, (S)-3-methyl-6-(methyl(1-phenylethyl)amino)-[1,2,4]triazolo[4,3-b]pyridazine-8-carboxamide]	> 1000	> 1000	–	–
Cc1nnc2ccc(N(C)[C@@H](C)c3ccccc3)nn12 [Compound 3, (S)-N,3-dimethyl-N-(1-phenylethyl)-[1,2,4]triazolo[4,3-b]pyridazin-6-amine]	< 500	> 1000	–	–
CCNC(=O)Nc1cc(N(C)[C@@H](C)c2ccccc2)nn2c(C(F)(F)F)nnc12 [Compound 14]	< 500	< 500	< 500	–
Cc1nnc2c(NC(=O)N(C)C)cc(N(C)[C@@H](C)c3ccccc3)nn12 [Compound 8, (S)-1,1-dimethyl-3-(3-methyl-6-(methyl(1-phenylethyl)amino)-[1,2,4]triazolo[4,3-b]pyridazin-8-yl)urea]	< 500	500 to 1000	–	> 1000
Cc1nnc2ccc(NC(C)c3ccccc3)nn12 (racemic) [Compound 1, rac-3-methyl-N-(1-phenylethyl)-[1,2,4]triazolo[4,3-b]pyridazin-6-amine]	> 1000	> 1000	> 1000	–
CCNC(=O)Nc1cc(N(C)[C@@H](C)c2ccc(F)cc2)nn2c(C)nnc12 [Compound 12]	< 500	< 500	< 500	–
Cc1nnc2ccc(N(C)[C@H](C)c3ccccc3)nn12 [Compound 4, (R)-N,3-dimethyl-N-(1-phenylethyl)-[1,2,4]triazolo[4,3-b]pyridazin-6-amine]	> 1000	–	–	–
